Laboratory results as given in patent US8546440B2, “Substituted bicyclic imidazole derivatives as gamma secretase modulators” (Janssen Pharmaceuticals, Inc., priority 2008, dated 2013).

How the values were obtained:
Aβtotal = test: Screening for γ-secretase-modulating activity, Method 1: Aβtotal sandwich ELISA in supernatant of SKNBE2 cells carrying APP 695 wild type (Tables 12a, 12b); type: cell-based
How it was run: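 Aβtotal in conditioned medium was measured by 6E10/biotin-4G8 sandwich ELISA with fluorogenic peroxidase read-out. Cells were wild-type APP 695 SKNBE2, treated 18 hours in glutamine-supplemented Ultraculture. IC50 came from 4-parameter fits of inhibition, or percent of control, against concentration; toxicity was checked by WST-1.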

Aβ42 = test: Demonstration of in vivo efficacy: Aβ42 lowering in brain after single oral dose (Table 13); settings: mouse brain soluble fraction, ELISA, mean, compared to untreated animals
From the text: To determine whether acute administration of an Aβ42 lowering agent would reduce Aβ42 levels in vivo, non-transgenic rodents, e.g. mice or rats were used. Alternatively, two to three month old Tg2576 mice expressing APP695 containing the “Swedish” variant can be used or a transgenic mouse model developed by Dr. Fred Van Leuven (K. U. Leuven, Belgium) and co-workers, with neuron-specific expression of a clinical mutant of the human amyloid precursor protein [V717I] (Moechars et al., 1999 J. Biol. Chem. 274, 6483). Young transgenic mice have high levels of Aβ in the brain but no detectable Aβ deposition. At approximately 6-8 months of age, the transgenic mice start to display spontaneous, progressive accumulation of β-amyloid (Aβ) in the brain, eventually resulting in amyloid plaques within the subiculum, hippocampus and cortex. Animals treated with the Aβ42 lowering agent were examined and compared to those untreated or treated with vehicle and brain levels of soluble Aβ42 and total Aβ would be quantitated by standard techniques, for example, using ELISA. Treatment periods varied from hours to days and were adjusted based on the results of the Aβ42 lowering once a time course of onset of effect could be established.
A typical protocol for measuring Aβ42 lowering in vivo is shown but it is only one of many variations that could be used to optimize the levels of detectable Aβ. For example, Aβ42 lowering compounds were formulated in 20% of Captisol® (a sulfobutyl ether of β-cyclodextrin) in water or 20% hydroxypropyl β cyclodextrin. The Aβ42 lowering agents were administered as a single oral dose or by any acceptable route of administration to overnight fasted animals. After four hours, the animals were sacrificed and Aβ42 levels were analysed.
Blood was collected by decapitation and exsanguinations in EDTA-treated collection tubes. Blood was centrifuged at 1900 g for 10 minutes at 4° C. and the plasma recovered and flash frozen for later analysis. The brain was removed from the cranium and hindbrain. The cerebellum was removed and the left and right hemisphere were separated. The left hemisphere was stored at −18° C. for quantitative analysis of test compound levels. The right hemisphere was rinsed with phosphate-buffered saline (PBS) buffer and immediately frozen on dry ice and stored at −80° C. until homogenization for biochemical assays.
Mouse brains were resuspended in 10 volumes of 0.4% DEA (diethylamine)/50 mM NaCl pH 10 (for non-transgenic animals) or 0.1% 3-[3-cholamidopropyl)-dimethyl-ammonio]-1-propanesulfonate (CHAPS) in tris buffered saline (TBS) (for transgenic animals) containing protease inhibitors (Roche-11873580001 or 04693159001) per gram of tissue, e.g. for 0.158 g brain, add 1.58 ml of 0.4% DEA. All samples were sonicated for 30 seconds on ice at 20% power output (pulse mode). Homogenates were centrifuged at 221.300×g for 50 min. The resulting high speed supernatants were then transferred to fresh tubes and were optionally further purified before the next step. A portion of the supernatant was neutralized with 10% 0.5 M Tris-HCl and this was used to quantify Aβtotal.
The obtained supernatants were purified with Water Oasis HLB reverse phase columns (Waters Corp., Milford, Mass.) to remove non-specific immunoreactive material from the brain lysates prior subsequent Aβ detection. Using a vacuum manifold, all solutions were passed through the columns at a rate of approximately 1 ml per minute, so the vacuum pressure was adjusted accordingly throughout the procedure. Columns were preconditioned with 1 ml of 100% MeOH, before equilibration with 1 ml of H2O. Non-neutralized brain lysates were loaded onto the columns. The loaded samples were then washed twice with the first wash performed with 1 ml of 5% MeOH, and the second wash with 1 ml of 30% MeOH. Finally, the Aβ was eluted from the columns and into 100×30 mm glass tubes, with a solution of 90% MeOH with 2% NH4OH. […]

[1] = Homo sapiens, Method 1, Table 12a, SKNBE2 cells carrying APP 695 wild type, compounds 18 hours, ELISA, curve top and bottom fixed to 100 and 0, hill slope 1
[2] = Homo sapiens, Table 12b, Method 1, SKNBE2 cells carrying APP 695 wild type, cell supernatant ELISA, averaged IC50 values

SMILES | IC50 (Aβtotal; [1]) [µM] | IC50 (Aβtotal; [2]) [µM] | Aβ42 (% Ctrl)_Mean (Aβ42) [% Ctrl] | IC50 (Aβtotal; Table 12b, Method 1, SKNBE2 cells carrying APP 695 wild type, cell supernatant ELISA, averaged IC50 values) [µM]
COc1cc(Nc2cccn3cc(-c4ccc(F)cc4)nc23)ccc1-n1cnc(C)c1 [Compound 1] | > 5 | > 5.01 | 65 | 
COc1cc(Nc2cccn3c(Cl)c(-c4ccc(F)cc4)nc23)ccc1-n1cnc(C)c1 [Compound 2] | > 3 | > 3.02 | 100 | 
COc1cc(Nc2cccn3cc(C4CCOCC4)nc23)ccc1-n1cnc(C)c1 [Compound 4] | > 3 | > 3.02 | 93 | 
COc1cc(Nc2cccn3c(C)c(-c4ccccc4)nc23)ccc1-n1cnc(C)c1 [Compound 5] | > 1 | > 3.02 | 66 | 
COc1cc(Nc2cccn3c(C)c(-c4ccccc4Cl)nc23)ccc1-n1cnc(C)c1 [Compound 15] | > 3 | > 3.02 | 62 | 
COc1cc(Nc2cccn3c(C)c(-c4c(F)cccc4F)nc23)ccc1-n1cnc(C)c1 [Compound 27] | > 3 | > 3.02 | 59 | 
COc1cc(Nc2cccn3c(C)c(-c4ccccc4C(F)(F)F)nc23)ccc1-n1cnc(C)c1 [Compound 29] | > 1 | > 10 | 56 | 
COc1cccc(-c2cn3cccc(Nc4ccc(-n5cnc(C)c5)c(OC)c4)c3n2)c1 [Compound 33] | > 3 | > 3.02 | 80 | 
COc1cc(Nc2cccn3cc(C)nc23)ccc1-n1cnc(C)c1 [Compound 50] | > 3 | > 5.01 | 67 | 
Cc1ncn(-c2ccc(Nc3cccn4cc(-c5ccccc5C)nc34)cc2)n1 [Compound 71] | > 3 |  | 91 | 
COc1nc(Nc2cccn3c(C)c(-c4ccccc4C(F)(F)F)nc23)ccc1-n1cnc(C)c1 [Compound 138] |  |  | 65 | > 3.02
